Assay type in all cases: cell-based
The subject of assay [1] is Trypanosoma brucei brucei (Lister 427) strain. The experiment in a line: Assay for growth inhibition against Trypanosoma brucei brucei (Cell TiterGlo ATP luminescence). Particulars: T. brucei brucei (Lister 427), read-out: T. Brucei (HAT) EC50. In short, it runs like this: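 Growth read-out is cellular ATP by CellTiter-Glo luminescence, measured 30 min after reagent addition, following 2-day incubation at 37 °C in CO2. Parasites (10,000/mL, HMI-9 plus 10% FBS and 10% serum plus) faced 10 threefold dilutions in duplicate; IC50 taken as 50% growth inhibition versus untreated.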
In general terms: ATP-based viability assays read luminescence as a measure of living cells.

Assay [2] concerns L. donovani HU3 strain in mouse peritoneal macrophages. The assay is described as follows: Assay for inhibition of parasitemia of Leishmania donovani in mouse macrophages (SYBR Green nuclei count, high-content imaging). As to conditions: L. donovani in mouse peritoneal macrophages, read-out: L. donovani in Mouse Macrophages EC50. The gist of the method:
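Parasite numbers were counted from SYBR Green-stained nuclei imaged by high-content microscopy after paraformaldehyde fixation and Triton permeabilization. Before this, compound was applied for 5 days at 37° C to BALB/c peritoneal macrophages (2×10^4/well) that had been exposed 24 h to 4×10^5 L. donovani HU3 amastigotes harvested from infected mouse spleens.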

The test system of assay [3] is Leishmania donovani axenic amastigote. The assay is described as follows: In vitro assay for growth inhibition of Leishmania donovani axenic amastigote (Cell TiterGlo luminescence). As to conditions: Leishmania donovani, L. donovani axenic amastigotes in vitro; read-out: L. donovani amastigotes EC50. The gist of the method: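 Compound-treated wells received 9600 axenic amastigotes in RPMI 1640-based medium at pH 5.5 (37 °C, 5% CO2). Growth measured as ATP luminescence (CellTiter-Glo) after 2-day incubation; DMSO and reference compounds served as controls.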

The test system of assay [4] is Trypanosoma cruzi amastigotes cultured in 3T3 fibroblast cells. The assay is described as follows: Assay for growth inhibition of kinetoplastid parasite Trypanosoma cruzi (beta-galactosidase Tulahuen strain, CPRG readout). As to conditions: Trypanosoma cruzi, Fibroblast, T. cruzi amastigotes in 3T3 fibroblast cells; read-out: Buckner infectious T. cruzi EC50. The gist of the method:
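3T3 fibroblasts (1,000 cells/well) plated overnight, treated with compound in DMSO, then infected with 10,000 Lac-Z-expressing Tulahuen trypomastigotes. After 6 days, 0.6 mM CPRG with 0.6% NP-40 added for 2 h at room temperature; absorbance gives relative intracellular amastigote numbers. Benznidazole and nifurtimox serve as positive controls.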

Setting [5] is: Leishmania donovani, Peritoneal macrophage.

This note sets out measurements from patent US11384078B2, “5,6-fused-bicyclic compounds and compositions for the treatment of parasitic diseases” (NOVARTIS AG, priority 2017, dated 2022).

In general, EC50 refers to the concentration giving half of the maximal effect.

Where two headings read alike, the source gives them in different places. Some results are limits rather than exact numbers.

Turning to `O=C(Nc1ccc(F)c(-n2cc3cc(N4CC5CCC4CO5)cnc3n2)c1)N1CC(F)C1` (centres unmarked) [Compound 197, 3-fluoro-N-[4-fluoro-3-(5-{2-oxa-5-azabicyclo[2.2.2]octan-5-yl}-2H-pyrazolo[3,4-b]pyridin-2-yl)phenyl}azetidine-1-carboxamide], the EC50 in assay [1] (Trypanosoma brucei) was found to be 5 nM; in assay [2] (setting [5]) it was 13 nM; in assay [3] it was 199 nM; in assay [4], 37 nM.

Consider `CC(=O)N1CCC1c1cnc2nn(-c3cc(NC(=O)N4CC(F)C4)ccc3F)cc2c1` (centres unmarked) [Compound 267, N-(3-(5-(1-acetylazetidin-2-yl)-2H-pyrazolo[3,4-b]pyridin-2-yl)-4-fluorophenyl)-3-fluoroazetidine-1-carboxamide], for which the EC50 in assay [1] (Trypanosoma brucei) was found to be 81 nM; in assay [2] (setting [5]) it was 13800 nM; in assay [3], 1710 nM; in assay [4] it was 9400 nM.

`Cc1nc(C(F)(F)F)oc1C(=O)Nc1ccc(F)c(-n2cc3cc(C(C)C)cnc3n2)c1` [Compound 78, N{4-fluoro-3-[5-(propan-2-yl)-2H-pyrazolo[3,4-b]pyridin-2-yl]phenyl}-4-methyl-2-(trifluoromethyl)-1,3-oxazole-5-carboxamide]: the EC50 was found to be 530 nM in assay [1] (Trypanosoma brucei), 870 nM in assay [2] (setting [5]), 800 nM in assay [3] and 450 nM in assay [4].

`O=C(Nc1cccc(-n2cc3cc(-c4ccccn4)cnc3n2)c1)N1CCC1` [Compound 344, N-{3-[5-(pyridin-2-yl)-2H-pyrazolo[3,4-b]pyridin-2-yl]phenyl}azetidine-1-carboxamide]: the EC50 in assay [1] (Trypanosoma brucei) was 1 nM; in assay [2] (setting [5]) it was 5 nM; in assay [3], 2 nM; in assay [4], 3 nM.

`O=C(Nc1ccc(F)c(-n2cc3cc(-c4ncccc4Cl)cnc3n2)c1)N1CC[C@@H](F)C1` [Compound 316, (3R)-N-{3-[5-(3-chloropyridin-2-yl)-2H-pyrazolo[3,4-b]pyridin-2-yl]-4-fluorophenyl}-3-fluoropyrrolidine-1-carboxamide]: the EC50 in assay [1] (Trypanosoma brucei) turned out to be 5 nM; in assay [2] (setting [5]) it was 2 nM; in assay [3] it was 2 nM; in assay [4], 1 nM.

For the molecule `O=C(Nc1ccc(F)c(-n2cc3cc(-c4ncccc4F)cnc3n2)c1)N1CC(F)(F)C1` [Compound 309, 3,3-difluoro-N-{4-fluoro-3-[5-(3-fluoropyridin-2-yl)-2H-pyrazolo[3,4-b]pyridin-2-yl]phenyl}azetidine-1-carboxamide], the EC50 was determined as 5 nM in assay [1] (Trypanosoma brucei), 2 nM in assay [2] (setting [5]), 1 nM in assay [3] and 1 nM in assay [4].

Turning to `O=C(Nc1ccc(F)c(-n2cc3cc(N4CC(F)(F)C4)cnc3n2)c1)C1CC1` [Compound 326, N-{3-[5-(3,3-difluoroazetidin-1-yl)-2H-pyrazolo[3,4-b]pyridin-2-yl]-4-fluorophenyl}cyclopropanecarboxamide], the EC50 in assay [1] (Trypanosoma brucei) is 236 nM; in assay [2] (setting [5]), 761 nM; in assay [3], 189 nM; in assay [4] it was 119 nM.

Take `CC(C)c1cnc2nn(-c3cc(NC(=O)C4CC4(F)F)ccc3F)cc2c1` (centres unmarked) [Compound 208, 2,2-difluoro-N-{4-fluoro-3-[5-(propan-2-yl)-2H-pyrazolo[3,4-b]pyridin-2-yl]phenyl}cyclopropane-1-carboxamide]: the EC50 worked out at 375 nM in assay [1] (Trypanosoma brucei), 1920 nM in assay [2] (setting [5]), 921 nM in assay [3] and 358 nM in assay [4].

With `CC(C)OC(=O)Nc1cnc2nn(-c3cc(NC(=O)N4CC(F)C4)ccc3F)cc2c1` [Compound 168, Isopropyl (2-(2-fluoro-5-(3-fluoroazetidine-1-carboxamido)phenyl)-2H-pyrazolo[3,4-b]pyridin-5-yl)carbamate], the EC50 in assay [1] (Trypanosoma brucei) was under 23 nM; in assay [2] (setting [5]), 8.2 nM; in assay [3] it was 3.2 nM; in assay [4], 27 nM.

As to `Cn1cnc(-c2cnc3nn(-c4cc(NC(=O)N5CC(F)C5)ccc4F)cc3c2)c1` [Compound 301, 3-fluoro-N-{4-fluoro-3-[5-(1-methyl-1H-imidazol-4-yl)-2H-pyrazolo[3,4-b]pyridin-2-yl]phenyl}azetidine-1-carboxamide], the concentration giving a half-maximal response (EC50) in assay [1] (Trypanosoma brucei) is 8 nM; in assay [2] (setting [5]), 97 nM; in assay [3], 73 nM; in assay [4], 472 nM.

Take `Cc1nc(C)c(C(=O)Nc2ccc(F)c(-n3cc4cc(C5CCC5)cnc4n3)c2)o1` [Compound 101, N-(3-{5-cyclobutyl-2H-pyrazolo[3,4-b]pyridin-2-yl}-4-fluorophenyl)-2,4-dimethyl-1,3-oxazole-5-carboxamide]: the EC50 was 150 nM in assay [1] (Trypanosoma brucei), 310 nM in assay [2] (setting [5]), 300 nM in assay [3] and 130 nM in assay [4].

As to `CN(C)c1cnc2nn(-c3cc(NC(=O)C4CC4)ccc3F)cc2c1` [Compound 331, N-{3-[5-(dimethylamino)-2H-pyrazolo[3,4-b]pyridin-2-yl]-4-fluorophenyl}cyclopropanecarboxamide], the EC50 in assay [1] (Trypanosoma brucei) was determined as 206 nM; in assay [2] (setting [5]), 910 nM; in assay [3], 217 nM; in assay [4], 138 nM.

As to `O=C(Nc1ccc(F)c(-n2cc3cc(N4CC(F)(F)C4)cnc3n2)c1)N1CC[C@@H](F)C1` [Compound 300, (3R)-N-{3-[5-(3,3-difluoroazetidin-1-yl)-2H-pyrazolo[3,4-b]pyridin-2-yl]-4-fluorophenyl}-3-fluoropyrrolidine-1-carboxamide], the EC50 in assay [1] (Trypanosoma brucei) was 3 nM; in assay [2] (setting [5]) it was 6 nM; in assay [3], 22 nM; in assay [4] it was 4 nM.

`CC(C)CCc1cnc2nn(-c3cc(NC(=O)N4CC(F)(F)C4)ccc3F)cc2c1` [Compound 38, 3,3-difluoro-N-{4-fluoro-3-[5-(3-methylbutyl)-2H-pyrazolo[3,4-b]pyridin-2-yl]phenyl}azetidine-1-carboxamide]: the EC50 came out at 24 nM in assay [1] (Trypanosoma brucei), 33 nM in assay [2] (setting [5]), 31 nM in assay [3] and 62 nM in assay [4].

On to `CC(C)c1cnc2nn(-c3cc(NC(=O)c4ccco4)ccc3F)cc2c1` [Compound 196, N-{4-fluoro-3-[5-(propan-2-yl)-2H-pyrazolo[3,4-b]pyridin-2-yl]phenyl}furan-2-carboxamide], for which the EC50 in assay [1] (Trypanosoma brucei) is under 23 nM; in assay [2] (setting [5]) it was 27000 nM; in assay [3] it was 76 nM; in assay [4], 12 nM.

Regarding `O=C(Nc1ccc(F)c(-n2cc3cc(N4CCCC4)cnc3n2)c1)c1ccco1` [Compound 141, N-{4-fluoro-3-[5-(pyrrolidin-1-yl)-2H-pyrazolo[3,4-b]pyridin-2-yl]phenyl}furan-2-carboxamide], the EC50 in assay [1] (Trypanosoma brucei) was under 23 nM; in assay [2] (setting [5]), 12 nM; in assay [3], 80 nM; in assay [4] it was 22 nM.

As to `CC(C)(C)c1cnc2nn(-c3cc(NC(=O)N4CC(F)C4)ccc3F)cc2c1` [Compound 22, N-(3-{5-tert-butyl-2H-pyrazolo[3,4-b]pyridin-2-yl}-4-fluorophenyl)-3-fluoroazetidine-1-carboxamide], the EC50 in assay [1] (Trypanosoma brucei) is under 23 nM; in assay [2] (setting [5]), 21000 nM; in assay [3] it was 28 nM; in assay [4], 7.2 nM.

For `O=C(Nc1ccc(F)c(-n2cc3cc(N4CC5(CCO5)C4)cnc3n2)c1)N1CC(F)C1` [Compound 201, 3-fluoro-N-[4-fluoro-3-(5-{1-oxa-6-azaspiro[3.3]heptan-6-yl}-2H-pyrazolo[3,4-b]pyridin-2-yl)phenyl]azetidine-1-carboxamide], the half-maximal effective concentration (EC50) in assay [1] (Trypanosoma brucei) was 5 nM; in assay [2] (setting [5]), 4 nM; in assay [3] it was 192 nM; in assay [4], 20 nM.

Consider `CC(C)(C)OC(=O)N1CCCC1c1cnc2nn(-c3cc(NC(=O)N4CCC4)ccc3F)cc2c1` (centres unmarked) [Compound 247, tert-butyl 2-(2-{5-[(azetidine-1-carbonyl)amino]-2-fluorophenyl}-2H-pyrazolo[3,4-b]pyridin-5-yl)pyrrolidine-1-carboxylate], for which the EC50 in assay [1] (Trypanosoma brucei) is 5 nM; in assay [2] (setting [5]) it was 23 nM; in assay [3], 40 nM; in assay [4], 14 nM.

For the molecule `O=C(Nc1ccc(F)c(-n2cc3cc(-c4ccccn4)cnc3n2)c1)[C@H]1C[C@@H]1F` (single isomer, unassigned) [Compound 269, (1 S,2R)-2-fluoro-N-(4-fluoro-3-(5-(pyridin-2-yl)-2H-pyrazolo[3,4-b]pyridin-2-yl)phenyl)cyclopropane-1-carboxamide or (1R,2S)-2-fluoro-N-(4-fluoro-3-(5-(pyridin-2-yl)-2H-pyrazolo[3,4-b]pyridin-2-yl)phenyl)cyclopropane-1-carboxamide], the EC50 in assay [1] came to 20 nM; in assay [2], 32 nM; in assay [3], 19 nM; in assay [4], 9 nM.
